# Results taken from ChEMBL document CHEMBL2331453, “Arundinols A-C and arundinones A and B from the plant endophytic fungus Microsphaeropsis arundinis” (J Nat Prod, 2013).
# Assays:
# Staphylococcus aureus = assay: Antibacterial activity against Staphylococcus aureus ATCC 6538 after 24 hrs; type: functional; details: ATCC 6538, 24 h
# T-24 = assay: Cytotoxicity against human T24 cells after 48 hrs by MTS assay; type: functional, cell-based; details: T-24, 48 h
# A549 = assay: Cytotoxicity against human A549 cells after 48 hrs by MTS assay; type: functional, cell-based; details: A549, 48 h
SMILES,MIC (Staphylococcus aureus),IC50 (T-24),IC50 (A549)
CC1(C)S[C@@H]2[C@H](NC(=O)[C@H](N)c3ccccc3)C(=O)N2[C@H]1C(=O)O [AMPICILLIN],0.46 µg/mL,–,–
COc1c(O)c(-c2c(O)c(OC)c(OC)c3c2OC(C)(O)C3=O)c2c(c1OC)C(=O)C(C)(O)O2 (centres undefined) [ARUNDINONE B],–,35.4 µM,81.6 µM
C=C(C)[C@@H]1CC[C@]2(C)C(=C(C)C(=O)C[C@H]2O)C1 [LIGUCYPERONOL],11.4 µg/mL,–,–
